This passage reports IC50 and Selectivity results from ChEMBL document CHEMBL1130571, “Synthesis and evaluation of novel-N-[2-(bis-aryl-methoxy)ethyl-N-aralkyl-,-alkanediamines as potent and selective dopamine reuptake inhibitors: Seco analogs of GBR12935 and GBR12909” (Bioorg Med Chem Lett, 1997).

The IC50 is the concentration needed to halve the response being measured. A high value points to weaker potency.

Experiment [1] addresses Sodium-dependent serotonin transporter (Rattus norvegicus, UniProt P31652). Put plainly: Compound was tested for its ability to inhibit the neurotransmitter serotonin-5-HT reuptake system using [3H]5-HT as radioligand.
For experiment [2], the target named is Sodium-dependent dopamine transporter (Rattus norvegicus, UniProt P23977). The experiment in a line: Compound was tested for its ability to inhibit the neurotransmitter dopamine-DA reuptake system using [3H]dopamine as radioligand.
Experiment [3] is described as follows: Selectivity of compound towards DA transporter to that of NE transporter.
Experiment [4] concerns the target Norepinephrine transporter (Rattus norvegicus, UniProt Q9WTR4). Put plainly: Norepinephrine transporter activity was determined by the ability of compound to inhibit the neurotransmitter norepinephrine-NE reuptake system using [3H]norepinephrine as radioligand.

Each structure is given as a SMILES string. Structures can show the parent of a compound that is named as a salt.

Sequence of Sodium-dependent dopamine transporter (P23977 whole entry): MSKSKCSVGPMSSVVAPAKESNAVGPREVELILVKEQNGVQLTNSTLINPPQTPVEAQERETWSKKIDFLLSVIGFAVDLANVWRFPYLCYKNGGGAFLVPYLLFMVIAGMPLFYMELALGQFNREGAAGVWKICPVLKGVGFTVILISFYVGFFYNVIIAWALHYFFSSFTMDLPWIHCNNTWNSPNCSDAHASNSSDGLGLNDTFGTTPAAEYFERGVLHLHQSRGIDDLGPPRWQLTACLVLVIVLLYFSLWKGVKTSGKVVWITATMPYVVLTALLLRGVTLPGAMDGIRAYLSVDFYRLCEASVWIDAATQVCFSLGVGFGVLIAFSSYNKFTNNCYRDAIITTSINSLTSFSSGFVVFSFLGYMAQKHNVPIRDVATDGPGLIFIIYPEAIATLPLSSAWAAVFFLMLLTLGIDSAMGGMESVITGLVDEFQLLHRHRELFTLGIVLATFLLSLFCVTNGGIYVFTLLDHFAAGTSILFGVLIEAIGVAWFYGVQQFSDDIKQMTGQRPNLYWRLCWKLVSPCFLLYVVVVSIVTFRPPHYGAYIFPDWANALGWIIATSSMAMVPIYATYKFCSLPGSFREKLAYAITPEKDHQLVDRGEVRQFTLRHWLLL
Sequence of Norepinephrine transporter (Q9WTR4 whole entry): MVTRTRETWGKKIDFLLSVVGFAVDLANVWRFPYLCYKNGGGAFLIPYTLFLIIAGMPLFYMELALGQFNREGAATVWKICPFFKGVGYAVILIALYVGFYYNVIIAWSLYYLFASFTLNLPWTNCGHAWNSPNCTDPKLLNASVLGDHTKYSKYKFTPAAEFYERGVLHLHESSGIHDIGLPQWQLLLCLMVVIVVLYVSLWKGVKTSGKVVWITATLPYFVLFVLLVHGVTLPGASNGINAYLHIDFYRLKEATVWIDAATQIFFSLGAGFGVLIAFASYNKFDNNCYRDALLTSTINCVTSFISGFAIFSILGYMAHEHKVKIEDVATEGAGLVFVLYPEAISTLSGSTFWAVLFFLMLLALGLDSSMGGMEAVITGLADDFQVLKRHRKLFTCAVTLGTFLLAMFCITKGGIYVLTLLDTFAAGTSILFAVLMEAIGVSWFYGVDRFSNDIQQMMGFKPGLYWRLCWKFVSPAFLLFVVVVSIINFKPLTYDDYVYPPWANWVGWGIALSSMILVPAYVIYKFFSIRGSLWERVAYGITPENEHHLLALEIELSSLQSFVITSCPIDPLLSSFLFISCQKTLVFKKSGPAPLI
Sequence of Sodium-dependent serotonin transporter (P31652 whole entry): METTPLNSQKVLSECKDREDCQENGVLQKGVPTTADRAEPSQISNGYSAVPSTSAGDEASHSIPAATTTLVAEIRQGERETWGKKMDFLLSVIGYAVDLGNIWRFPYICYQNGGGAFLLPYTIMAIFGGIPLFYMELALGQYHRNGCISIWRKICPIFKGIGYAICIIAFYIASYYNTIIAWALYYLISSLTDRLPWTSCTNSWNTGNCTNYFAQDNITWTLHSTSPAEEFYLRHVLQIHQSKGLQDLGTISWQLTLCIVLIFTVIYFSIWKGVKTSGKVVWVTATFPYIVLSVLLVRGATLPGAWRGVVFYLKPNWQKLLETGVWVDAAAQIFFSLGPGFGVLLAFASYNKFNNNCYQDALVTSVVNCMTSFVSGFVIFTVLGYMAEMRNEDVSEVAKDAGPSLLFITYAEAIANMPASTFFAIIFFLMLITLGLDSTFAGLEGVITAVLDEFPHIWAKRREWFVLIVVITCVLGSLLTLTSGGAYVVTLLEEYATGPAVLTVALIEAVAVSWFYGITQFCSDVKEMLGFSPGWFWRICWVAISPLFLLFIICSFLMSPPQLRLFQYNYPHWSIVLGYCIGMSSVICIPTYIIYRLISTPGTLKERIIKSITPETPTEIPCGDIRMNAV

Turning to `c1ccc(CCCNCCCNCCOC(c2ccccc2)c2ccccc2)cc1`, the IC50 in experiment [1] is above 10000 nM; in experiment [2], 150 nM; in experiment [4], above 10000 nM. The Selectivity in experiment [3] is above 65.
Regarding `c1ccc(CCCNCCNCCOC(c2ccccc2)c2ccccc2)cc1`, the IC50 is above 10000 nM in experiment [1], 1230 nM in experiment [2] and above 10000 nM in experiment [4]. The compound further registered a Selectivity in experiment [3] above 8.
With `CN(CCCc1ccccc1)CCN(C)CCOC(c1ccc(F)cc1)c1ccc(F)cc1`, the values for the IC50 in experiment [1], in experiment [2] and in experiment [4] were 1500 nM, 10 nM and above 10000 nM, respectively. Besides, the Selectivity in experiment [3] is above 1000.
In the case of `Fc1ccc(C(OCCNCCNCCCc2ccccc2)c2ccc(F)cc2)cc1`, the IC50 in experiment [1] is 500 nM; in experiment [2], 49 nM; in experiment [4], above 10000 nM. This compound had a Selectivity in experiment [3] above 200.
The matching figures for `I/C=C/CN1CCN(CCOC(c2ccccc2)c2ccccc2)CC1`: above 10000 nM, 505 nM, above 10000 nM and above 20.
With `CC(NC(C)(C)C)C(=O)c1cccc(Cl)c1` (stereo not given) [BUPROPION HYDROCHLORIDE], in experiment [2], the IC50 is 1230 nM.
With `I/C=C\CN1CCN(CCOC(c2ccccc2)c2ccccc2)CC1`, the IC50 in experiment [1] is above 10000 nM; in experiment [2], 780 nM; in experiment [4] it was 2190 nM. This compound had a Selectivity in experiment [3] of 3.
